Test systems include Pseudomonas syringae; Escherichia coli BL21; Escherichia coli UTI89; Enterobacter cloacae; Streptococcus pneumoniae; Staphylococcus aureus; Klebsiella pneumoniae; Citrobacter sp.; Escherichia coli BW25113; Escherichia coli.
Holding throughout (assay): ≥ marks a high value that may be exact or a test limit, other limits are often not marked, values filed in µg/mL are converted to µM
Assay [1] deals with Xanthomonas axonopodis pv. phaseoli ATCC 9563.
In assay [2] the test system is Streptococcus pyogenes GAS M1T1.
Assay [3] deals with Escherichia coli ATCC 25922.
Assay [4] concerns Staphylococcus aureus LAC.
Assay [5] concerns Staphylococcus epidermidis.
The subject of assay [6] is Escherichia coli K12 MG1655.
Assay [7] concerns Salmonella enterica subsp. enterica serovar Typhimurium ATCC 14028.
The subject of assay [8] is Staphylococcus aureus ATCC 25923.
The test system of assay [9] is Acinetobacter baumannii ATCC 15308.
Assay [10] has as its system Pseudomonas aeruginosa ATCC 15442.
In assay [11] the test system is Escherichia coli BW25113 ΔsbmA.
The test system of assay [12] is Pseudomonas aeruginosa ATCC 27853.
For assay [13], the system named is Klebsiella pneumoniae ATCC 700603.
Assay [14] deals with Acinetobacter baumannii ATCC 19606.
The subject of assay [15] is Enterococcus faecalis ATCC 19433.

Values after ≈ are worked out from the molar mass of the structure shown.

A word on the MIC: it is the least concentration at which growth counts as inhibited. Low values mean greater potency, high ones weaker potency. For the compound `CC[C@H](C)[C@H](NC(=O)[C@H](CCC(=O)O)NC(=O)[C@H](CC(N)=O)NC(=O)[C@H](CCCCN)NC(=O)[C@H](CC(C)C)NC(=O)[C@H](Cc1ccc(O)cc1)NC(=O)[C@H](CCC(N)=O)NC(=O)[C@H](CCCN=C(N)N)NC(=O)[C@@H](NC(=O)[C@@H](NC(=O)[C@H](CCCCN)NC(=O)[C@H](CCCCN)NC(=O)[C@H](Cc1c[nH]c2ccccc12)NC(=O)[C@H](C)N)[C@@H](C)O)[C@@H](C)CC)C(=O)N[C@@H](CCCCN)C(=O)N[C@@H](CCCCN)C(=O)N[C@@H](CCCCN)C(=O)N[C@@H](Cc1c[nH]c2ccccc12)C(=O)N[C@@H](CCCN=C(N)N)C(=O)N[C@@H](CCCCN)C(=O)N[C@@H](C)C(=O)N[C@H](C(=O)N[C@H](C(=O)N[C@@H](C)C(=O)N[C@@H](Cc1c[nH]c2ccccc12)C(=O)O)[C@@H](C)CC)C(C)C` [AWKKTIRQYLKNEIKKKWRKAVIAW], the MIC in [1] is 1 µM (≈ 3.19 µg/mL); in assay [2], 8 µM (≈ 25.5 µg/mL); against Pseudomonas syringae, 8 µM (≈ 25.5 µg/mL); against Escherichia coli BL21, 2 µM (≈ 6.37 µg/mL).
`CC[C@H](C)[C@H](N)C(=O)N[C@H](C(=O)N[C@H](C(=O)N[C@H](C(=O)N[C@@H](CCCN=C(N)N)C(=O)N[C@@H](CCCN=C(N)N)C(=O)N[C@@H](CCCN=C(N)N)C(=O)N[C@@H](CCCN=C(N)N)C(=O)O)[C@@H](C)CC)[C@@H](C)CC)[C@@H](C)CC` [IIIIRRRR]: the results for the MIC in assay [3] and in [4] were more than 117 µM and not below 117 µM, respectively.
In the case of `CC[C@H](C)[C@H](NC(=O)[C@H](CCCCN)NC(=O)[C@H](CCC(N)=O)NC(=O)[C@H](Cc1c[nH]c2ccccc12)NC(=O)[C@@H](NC(=O)[C@H](CCCCN)NC(=O)[C@@H](N)CCCCN)[C@@H](C)CC)C(=O)N[C@@H](CCCCN)C(=O)N[C@@H](CC(N)=O)C(=O)N[C@@H](Cc1ccccc1)C(=O)N[C@@H](Cc1ccccc1)C(=O)N[C@@H](CCCN=C(N)N)C(=O)N[C@@H](CCCCN)C(=O)N[C@@H](CC(C)C)C(=O)O` [KKIWQKIKNFFRKL], the minimum inhibitory concentration (MIC) in assay [5] is 12.5 µM (≈ 23.5 µg/mL); in assay [6] it was not below 50 µM; in assay [7] it was more than 50 µM; in the assay with Escherichia coli UTI89, 25 µM (≈ 46.9 µg/mL).
Consider `CC[C@H](C)[C@H](NC(=O)[C@H](CCCCN)NC(=O)[C@H](CCC(N)=O)NC(=O)[C@H](Cc1c[nH]c2ccccc12)NC(=O)[C@@H](NC(=O)[C@H](CCCCN)NC(=O)[C@@H](N)CCCCN)[C@@H](C)CC)C(=O)N[C@@H](CCCN=C(N)N)C(=O)N[C@@H](CC(N)=O)C(=O)N[C@@H](Cc1ccccc1)C(=O)N[C@@H](Cc1ccccc1)C(=O)N[C@@H](CCC(N)=O)C(=O)N[C@@H](CCCCN)C(=O)N[C@@H](CC(C)C)C(=O)O` [KKIWQKIRNFFQKL], for which the MIC is not below 50 µM in assay [5], 12.5 µM (≈ 23.5 µg/mL) in [6], more than 50 µM in assay [7] and 12.5 µM (≈ 23.5 µg/mL) in the assay on Escherichia coli UTI89.
On to `CC(C)C[C@H](NC(=O)[C@@H](N)CCCN=C(N)N)C(=O)N1CCC[C@H]1C(=O)N[C@@H](Cc1c[nH]c2ccccc12)C(=O)N[C@@H](CCCN=C(N)N)C(=O)N[C@@H](Cc1c[nH]c2ccccc12)C(=O)N1CCC[C@H]1C(=O)N[C@@H](CCCN=C(N)N)C(=O)N[C@@H](CCCN=C(N)N)C(=O)N1CCC[C@H]1C(=O)N[C@@H](Cc1c[nH]c2ccccc12)C(=O)N[C@@H](CCCN=C(N)N)C(=O)N[C@@H](CCCN=C(N)N)C(N)=O` [RLPWRWPRRPWRR], for which the MIC in the assay with Enterobacter cloacae is not below 130 µM; against Streptococcus pneumoniae, not below 130 µM; in assay [8] it was 65.2 µM (≈ 125 µg/mL); in [9], not below 130 µM; against Staphylococcus aureus, 130 µM (≈ 250 µg/mL); against Klebsiella pneumoniae it was more than 130 µM. Moreover, the MIC is 130 µM (≈ 250 µg/mL) in [3], not below 130 µM in the assay with Citrobacter sp. and not below 65.2 µM in assay [10].
With `CC[C@H](C)[C@H](NC(=O)[C@@H]1CCCN1C(=O)[C@@H]1CCCN1C(=O)[C@H](CCCN=C(N)N)NC(=O)[C@H](Cc1ccccc1)NC(=O)[C@@H]1CCCN1C(=O)[C@@H]1CCCN1C(=O)[C@H](Cc1ccc(O)cc1)NC(=O)[C@H](Cc1ccccc1)NC(=O)[C@@H]1CCCN1C(=O)[C@@H]1CCCN1C(=O)[C@H](CCCN=C(N)N)NC(=O)[C@@H](NC(=O)[C@@H]1CCCN1C(=O)[C@@H]1CCCN1C(=O)[C@H](CCCN=C(N)N)NC(=O)[C@H](CCCN=C(N)N)NC(=O)[C@@H](NC(=O)[C@@H]1CCCN1C(=O)[C@@H]1CCCN1C(=O)[C@@H](N)CCCN=C(N)N)[C@@H](C)CC)[C@@H](C)CC)C(=O)N[C@@H](CCCN=C(N)N)C(=O)N1CCC[C@H]1C(=O)O` [RPPIRRPPIRPPFYPPFRPPIRP], the MIC in [8] is more than 64 µM; in [11], not below 64 µM; in [12] it was more than 64 µM; in the assay with Escherichia coli BW25113, 4 µM (≈ 11.3 µg/mL); in assay [3], 8 µM (≈ 22.6 µg/mL); in assay [13], more than 64 µM. For the same compound, the minimum inhibitory concentration (MIC) in assay [7] was more than 64 µM; in assay [14], 8 µM (≈ 22.6 µg/mL).
As to `CC[C@H](C)[C@H](NC(=O)[C@@H]1CCCN1C(=O)[C@H](CCCN=C(N)N)NC(=O)[C@H](CCCN=C(N)N)NC(=O)[C@H](Cc1c[nH]c2ccccc12)NC(=O)[C@@H](N)CCCN=C(N)N)C(=O)N[C@@H](CCCN=C(N)N)C(=O)N[C@@H](CCCN=C(N)N)C(=O)N[C@@H](CCCN=C(N)N)C(=O)N1CCC[C@H]1C(=O)N[C@H](C(=O)N[C@@H](CCCN=C(N)N)C(=O)N1CCC[C@H]1C(=O)N1CCC[C@H]1C(=O)N[C@@H](Cc1ccccc1)C(=O)N[C@@H](Cc1c[nH]c2ccccc12)C(=O)N[C@@H](CCCN=C(N)N)C(=O)O)[C@@H](C)CC` [RWRRPIRRRPIRPPFWR], the MIC with Escherichia coli was found to be 1.41 µM (≈ 3.4 µg/mL); in assay [8], 64 µM (≈ 154 µg/mL); in assay [11] it was 4 µM (≈ 9.61 µg/mL); in assay [12], 32 µM (≈ 76.9 µg/mL); in the assay with Escherichia coli BW25113, 4 µM (≈ 9.61 µg/mL); in assay [13], 4 µM (≈ 9.61 µg/mL). Also, the MIC in assay [14] came out at 8 µM (≈ 19.2 µg/mL).
In turn, `CC[C@@H](C)[C@@H](NC(=O)[C@@H](CCCN=C(N)N)NC(=O)[C@@H](CCCN=C(N)N)NC(=O)[C@@H](Cc1c[nH]c2ccccc12)NC(=O)[C@@H](CCC(N)=O)NC(=O)[C@H](N)C(C)C)C(=O)N[C@H](CCCN=C(N)N)C(=O)N[C@@H](C(=O)N[C@H](Cc1c[nH]c2ccccc12)C(=O)N[C@@H](C(=O)N[C@@H](C(=O)N[C@H](CCCN=C(N)N)C(=O)O)[C@H](C)CC)C(C)C)C(C)C` [VQWRRIRVWVIR] displayed a minimal inhibitory concentration (MIC) in [15] not below 154 µM.
`NC(N)=NCCC[C@H](NC(=O)[C@H](CCCN=C(N)N)NC(=O)[C@H](CCCN=C(N)N)NC(=O)[C@H](CCCN=C(N)N)NC(=O)[C@H](Cc1ccc(O)cc1)NC(=O)[C@H](Cc1ccc(O)cc1)NC(=O)[C@H](Cc1ccc(O)cc1)NC(=O)[C@@H](N)Cc1ccc(O)cc1)C(=O)O` [YYYYRRRR]: the minimum inhibitory concentration (MIC) in [3] is more than 98.8 µM; in assay [4], not below 98.8 µM.

The values above are taken from DBAASP.
